From PubChem BioAssay AID328 (DTP/NCI, 2004)
“And” between values parts separate entries of the source, which are not always exact repeats. Equal entries are not always repeated. Inconclusive results and toxic doses are left out. Rule for the calls: active = survival T/C of 150% or more; inactive = T/C below 125% in these data.

Test system: BDF1 mice, P388 leukemia ip, median survival T/C
Assay: NCI In Vivo Anticancer Drug Screen. Data for tumor model P388 Leukemia (intraperitoneal) in B6D2F1 (BDF1) mice
Conditions: endpoint: median survival time, higher = longer survival
In short: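 Survival ratio, drug arm over vehicle arm, in mice with a transplanted tumour.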

[1] = dose: 100.0 mg/kg/injection, schedule: Q04DX003 (ip), vehicle: saline with Tween-80
[2] = dose: 400.0 mg/kg/injection, schedule: Q04DX003 (ip), vehicle: saline with Tween-80
[3] = dose: 25.0 mg/kg/injection, schedule: Q04DX003 (ip), vehicle: saline
[4] = dose: 50.0 mg/kg/injection, schedule: Q01DX009 (ip), vehicle: saline
[5] = dose: 100.0 mg/kg/injection, schedule: Q01DX009 (ip), vehicle: saline
[6] = dose: 100.0 mg/kg/injection, schedule: Q04DX003 (ip), vehicle: saline
[7] = dose: 200.0 mg/kg/injection, schedule: Q04DX003 (ip), vehicle: saline
[8] = dose: 200.0 mg/kg/injection, schedule: Q01DX009 (ip), vehicle: saline
[9] = dose: 6.25 mg/kg/injection, schedule: Q01DX009 (ip), vehicle: saline with Tween-80
[10] = dose: 12.5 mg/kg/injection, schedule: Q01DX009 (ip), vehicle: saline with Tween-80
[11] = dose: 25.0 mg/kg/injection, schedule: Q01DX009 (ip), vehicle: saline
[12] = dose: 25.0 mg/kg/injection, schedule: Q01DX009 (ip), vehicle: saline with Tween-80
[13] = dose: 50.0 mg/kg/injection, schedule: Q01DX009 (ip), vehicle: saline with Tween-80
[14] = dose: 100.0 mg/kg/injection, schedule: Q01DX009 (ip), vehicle: saline with Tween-80
[15] = dose: 200.0 mg/kg/injection, schedule: Q01DX009 (ip), vehicle: saline with Tween-80
[16] = dose: 6.25 mg/kg/injection, schedule: Q04DX003 (ip), vehicle: saline with Tween-80
[17] = dose: 12.5 mg/kg/injection, schedule: Q04DX003 (ip), vehicle: saline with Tween-80
[18] = dose: 400.0 mg/kg/injection, schedule: Q01DX009 (ip), vehicle: saline with Tween-80
[19] = dose: 200.0 mg/kg/injection, schedule: Q04DX003 (ip), vehicle: saline with Tween-80
[20] = dose: 50.0 mg/kg/injection, schedule: Q04DX003 (ip), vehicle: saline with Tween-80

Measured: T/C

CCCCCCCCCCCCCCCC[N+](C)(C)c1nc(Cl)nc(Cl)n1
inactive: dose: 7.5 mg/kg/injection, schedule: Q01DX009 (ip), vehicle: saline 110 % of control | dose: 7.5 mg/kg/injection, schedule: Q04DX003 (ip), vehicle: saline 109 % of control | dose: 15.0 mg/kg/injection, schedule: Q01DX009 (ip), vehicle: saline 105 % of control | dose: 15.0 mg/kg/injection, schedule: Q04DX003 (ip), vehicle: saline 113 % of control | dose: 30.0 mg/kg/injection, schedule: Q01DX009 (ip), vehicle: saline 105 % of control | dose: 30.0 mg/kg/injection, schedule: Q04DX003 (ip), vehicle: saline 109 % of control | dose: 60.0 mg/kg/injection, schedule: Q04DX003 (ip), vehicle: saline 118 % of control

O=S1(=O)CC2(N3CCOCC3)C3CCC(C3)C21 (stereo not given)
inactive: [1] 111 % of control | [2] 92 % of control

BrCc1cc2ccccc2cc1CBr
inactive: [3] 116 % of control

C[N+](C)(C)c1ncnc2c1ncn2C1CCCO1 (stereo not given)
inactive: [4] 100 % of control | [5] 109 % of control | [6] 100 % of control | [7] 100 % of control

COC(=O)C1(N)CCCC1
inactive: [5] 91 % of control | [8] 104 % of control

CCCCCCc1nc2nc(Cl)c(Cl)nc2[nH]1
inactive: dose: 0.78 mg/kg/injection, schedule: Q01DX009 (ip), vehicle: saline with Tween-80 100 % of control | dose: 1.56 mg/kg/injection, schedule: Q01DX009 (ip), vehicle: saline with Tween-80 89 % of control | dose: 3.12 mg/kg/injection, schedule: Q01DX009 (ip), vehicle: saline with Tween-80 92 % of control | [9] 92 % of control | [10] 95 % of control

CC(C)CCC[C@@H](C)[C@H]1CC[C@H]2[C@@H]3CC=C4C[C@@H](O)CC[C@]4(C)[C@H]3CC[C@]12C
inactive: dose: 100.0 mg/kg/injection, schedule: Q01DX009 (ip), vehicle: other 106 % of control | dose: 200.0 mg/kg/injection, schedule: Q01DX009 (ip), vehicle: other 103 % of control | dose: 400.0 mg/kg/injection, schedule: Q01DX009 (ip), vehicle: other 89 % of control | dose: 800.0 mg/kg/injection, schedule: Q01DX009 (ip), vehicle: other 105 % of control

CCCC(N)C(=O)c1ccccc1 (stereo not given)
inactive: [11] 109 % of control | [4] 109 % of control

C[C@]12CC[C@H]3[C@@H](CC[C@H]4N(CCCl)CCC[C@]34C)[C@@H]1CC[C@@H]2O
inactive: dose: 12.5 mg/kg/injection, schedule: Q01DX001 (ip), vehicle: saline 105 % of control | dose: 25.0 mg/kg/injection, schedule: Q01DX001 (ip), vehicle: saline 109 % of control

C[n+]1c2ccccc2cc2ccccc21
inactive: [12] 118 % of control

COC(=O)C1=COC2OC3CC1C2C(C)O3 (stereo not given)
inactive: dose: 12.5 mg/kg/injection, schedule: Q01DX009 (ip), vehicle: Klucel (hydroxypropylcellulose) (HPC) 99 % of control | dose: 25.0 mg/kg/injection, schedule: Q01DX009 (ip), vehicle: Klucel (hydroxypropylcellulose) (HPC) 98 % of control | dose: 50.0 mg/kg/injection, schedule: Q01DX009 (ip), vehicle: Klucel (hydroxypropylcellulose) (HPC) 115 % of control

O=C1N=C(Oc2ccccc2)SC1=O
inactive: [12] 103 % of control and 104 % of control | dose: 50.0 mg/kg/injection, schedule: Q01DX009 (ip), vehicle: saline + alcohol 113 % of control | [13] 95 % of control and 108 % of control | dose: 100.0 mg/kg/injection, schedule: Q01DX009 (ip), vehicle: saline + alcohol 120 % of control | [14] 117 % of control and 123 % of control | dose: 200.0 mg/kg/injection, schedule: Q01DX009 (ip), vehicle: saline + alcohol 113 % of control | [15] 117 % of control and 121 % of control

COC1=CCC23C(=O)C=CC(=O)C2(C1)C(=O)c1ccccc1C3=O (stereo not given)
inactive: dose: 3.12 mg/kg/injection, schedule: Q04DX003 (ip), vehicle: saline with Tween-80 105 % of control | [16] 113 % of control | [17] 113 % of control

CC(=O)N1CCCCCC1=O
inactive: [13] 104 % of control | [14] 89 % of control | [15] 104 % of control | [18] 90 % of control

O=C1CN(C(=O)CN2C(=O)c3ccccc3C2=O)C2(CCCCC2)O1
inactive: [1] 100 % of control | [2] 100 % of control

O=C(O)CCNCc1ccccc1
inactive: [11] 93 % of control | [4] 108 % of control | [5] 117 % of control | [8] 88 % of control

COc1ccc2c(OC)c3ccoc3nc2c1OC
inactive: dose: 1.57 mg/kg/injection, schedule: Q01DX009 (ip), vehicle: Klucel (hydroxypropylcellulose) (HPC) 89 % of control | dose: 3.13 mg/kg/injection, schedule: Q01DX009 (ip), vehicle: Klucel (hydroxypropylcellulose) (HPC) 89 % of control | dose: 6.25 mg/kg/injection, schedule: Q01DX009 (ip), vehicle: Klucel (hydroxypropylcellulose) (HPC) 101 % of control

Cc1ccc2c(c1O)NC(=O)C1CCCN1C2=O (stereo not given)
inactive: dose: 100.0 mg/kg/injection, schedule: Q04DX002 (ip), vehicle: saline with Tween-80 99 % of control | dose: 200.0 mg/kg/injection, schedule: Q04DX002 (ip), vehicle: saline with Tween-80 102 % of control | dose: 400.0 mg/kg/injection, schedule: Q04DX002 (ip), vehicle: saline with Tween-80 101 % of control

CC1(C(=O)O)CCC(C(=O)Nc2ccccc2)C1(C)C (stereo not given)
inactive: [14] 92 % of control | [1] 100 % of control | [15] 92 % of control | [19] 90 % of control | [18] 92 % of control | [2] 104 % of control

Cc1ccc(C(=O)NCCCOc2ccc(N)cc2Cl)cc1S(=O)(=O)F
inactive: [12] 102 % of control | [13] 111 % of control | [20] 100 % of control | [14] 93 % of control | [1] 92 % of control | [15] 107 % of control | [19] 92 % of control | [2] 90 % of control

O=c1[nH]cnc2nc(Br)[nH]c12
inactive: [13] 100 % of control | [14] 101 % of control | [15] 93 % of control | [18] 101 % of control

CCOC(=O)c1nc2nc(Cl)c(Cl)nc2[nH]1
inactive: dose: 4.0 mg/kg/injection, schedule: Q01DX009 (ip), vehicle: saline 90 % of control | [3] 93 % of control | dose: 32.0 mg/kg/injection, schedule: Q01DX009 (ip), vehicle: saline 89 % of control | dose: 50.0 mg/kg/injection, schedule: Q04DX003 (ip), vehicle: saline 98 % of control | [6] 102 % of control | [7] 93 % of control

CC(C)CC(CC(C)C)NCC(C)OC(=O)c1ccc(N)cc1 (stereo not given)
inactive: [9] 104 % of control | [16] 107 % of control | [10] 93 % of control | [17] 114 % of control | [12] 104 % of control | dose: 25.0 mg/kg/injection, schedule: Q04DX003 (ip), vehicle: saline with Tween-80 114 % of control | [20] 114 % of control
